Laboratory results as given in PubChem BioAssay AID280 (DTP/NCI, 2004).
“And” between values parts separate entries of the source, which are not always exact repeats. Equal values may be shown once. Inconclusive results and toxic doses are left out.

System: nude mice, LOX melanoma ip, survival T/C
Assay: NCI In Vivo Anticancer Drug Screen. Data for tumor model Human Amelanotic Melanoma (LOX) (intraperitoneal) in NU/NU BALB/C (nude) mice
Conditions: endpoint: median survival time, higher = longer survival
Method: The antitumor activity of compounds was measured in mice bearing transplantable tumors. Survival or tumor size were measured and the results are expressed as the measurement made in the treated group (T) divided by the measurement made in the vehicle treated control group (C). The tumor model used in this assay is Human Amelanotic Melanoma (LOX) (intraperitoneal) in NU/NU BALB/C (nude) mice

[1] = dose: 1.0 mg/kg/injection, schedule: Q04DX003 (ip), vehicle: water
[2] = dose: 4.0 mg/kg/injection, schedule: Q04DX003 (ip), vehicle: saline
[3] = dose: 8.0 mg/kg/injection, schedule: Q04DX003 (ip), vehicle: saline
[4] = dose: 16.0 mg/kg/injection, schedule: Q04DX003 (ip), vehicle: saline
[5] = dose: 25.0 mg/kg/injection, schedule: Q04DX003 (ip), vehicle: DMSO
[6] = dose: 50.0 mg/kg/injection, schedule: Q04DX003 (ip), vehicle: DMSO
[7] = dose: 100.0 mg/kg/injection, schedule: Q04DX003 (ip), vehicle: Klucel (hydroxypropylcellulose) (HPC)
[8] = dose: 400.0 mg/kg/injection, schedule: Q04DX003 (ip), vehicle: Klucel (hydroxypropylcellulose) (HPC)
[9] = dose: 6.25 mg/kg/injection, schedule: Q04DX003 (ip), vehicle: saline with Tween-80
[10] = dose: 12.5 mg/kg/injection, schedule: Q04DX003 (ip), vehicle: saline with Tween-80
[11] = dose: 50.0 mg/kg/injection, schedule: Q04DX003 (ip), vehicle: saline with Tween-80
[12] = dose: 100.0 mg/kg/injection, schedule: Q04DX003 (ip), vehicle: saline with Tween-80
[13] = dose: 200.0 mg/kg/injection, schedule: Q04DX003 (ip), vehicle: saline with Tween-80
[14] = dose: 300.0 mg/kg/injection, schedule: Q04DX003 (ip), vehicle: saline with Tween-80

For `COc1cccc2c1C(=O)c1c(O)c3c(c(O)c1C2=O)C[C@@](O)(C(=O)CO)C[C@@H]3OC1CC(N)C(O)C(C)O1` (some centres undefined), the T/C (dose: 0.25 mg/kg/injection, schedule: Q01DX015 (ip), vehicle: water) was 162 % of control, the T/C (dose: 0.5 mg/kg/injection, schedule: Q01DX015 (ip), vehicle: water) was 167 % of control and the T/C (dose: 1.0 mg/kg/injection, schedule: Q01DX005 (ip), vehicle: water) was 208 % of control. The T/C (dose: 1.0 mg/kg/injection, schedule: Q01DX015 (ip), vehicle: water) was 152 % of control, the T/C [1] was 270 % of control and the T/C (dose: 2.0 mg/kg/injection, schedule: Q01DX001 (ip), vehicle: water) was 197 % of control. The T/C (dose: 2.0 mg/kg/injection, schedule: Q04DX003 (ip), vehicle: water) was 203 % of control, the T/C (dose: 4.0 mg/kg/injection, schedule: Q01DX001 (ip), vehicle: water) was 240 % of control and the T/C [2] was 107 % of control. The T/C (dose: 4.0 mg/kg/injection, schedule: Q04DX003 (ip), vehicle: water) was 151 % of control, the T/C (dose: 4.0 mg/kg/injection, schedule: Q04DX003 (iv), vehicle: saline) was 158 % of control and the T/C [3] was 122 % of control. The T/C (dose: 8.0 mg/kg/injection, schedule: Q04DX003 (iv), vehicle: saline) was 275 % of control and the T/C [4] was 101 % of control.

In the case of `O=C(Nc1cccc(O)c1)C(Cl)=C(Cl)Cl`, the T/C (dose: 6.25 mg/kg/injection, schedule: Q04DX003 (ip), vehicle: DMSO) is reported as 96 % of control, the T/C (dose: 12.5 mg/kg/injection, schedule: Q04DX003 (ip), vehicle: DMSO) is reported as 91 % of control and the T/C [5] is reported as 95 % of control. For the same compound, the T/C [6] was 94 % of control.

With `CN1C2C=CC(=O)C1C1C(=O)N(c3ccccc3)C(=O)C12` (centres undefined) the T/C (dose: 50.0 mg/kg/injection, schedule: Q04DX003 (ip), vehicle: Klucel (hydroxypropylcellulose) (HPC)) was 100 % of control, the T/C [7] was 96 % of control and the T/C (dose: 200.0 mg/kg/injection, schedule: Q04DX003 (ip), vehicle: Klucel (hydroxypropylcellulose) (HPC)) was 99 % of control. The T/C [8] was 100 % of control.

For `O=C1C2=C(C(=O)c3ncccc31)C1C=CC2CC1` (centres undefined), the T/C [5] was 99 % of control, the T/C [6] was 103 % of control and the T/C (dose: 100.0 mg/kg/injection, schedule: Q04DX003 (ip), vehicle: DMSO) was 99 % of control. The T/C (dose: 200.0 mg/kg/injection, schedule: Q04DX003 (ip), vehicle: DMSO) was 89 % of control.

In the case of `CC(C)N1C(=O)N(Cl)C2C1N(Cl)C(=O)N2Cl` (centres undefined), the T/C [9] is reported as 103 % of control and 88 % of control, the T/C [10] is reported as 102 % of control and 88 % of control and the T/C (dose: 25.0 mg/kg/injection, schedule: Q04DX003 (ip), vehicle: saline with Tween-80) is reported as 109 % of control and 98 % of control. The T/C [11] was 107 % of control and 121 % of control and the T/C [12] was 102 % of control and 120 % of control.

With `O=C1C=CC(=CC=C2C=CN(CCCCCCCCCCCO)C=C2)C=C1` the T/C [9] was 107 % of control, the T/C [10] was 100 % of control and the T/C (dose: 36.0 mg/kg/injection, schedule: Q04DX003 (ip), vehicle: saline with Tween-80) was 109 % of control and 110 % of control. For the same compound, the T/C [11] was 117 % of control, the T/C (dose: 60.0 mg/kg/injection, schedule: Q04DX003 (ip), vehicle: saline with Tween-80) was 116 % of control and 120 % of control and the T/C [13] was 159 % of control.

In the case of `CCCCOCN(COCCCC)C12CC3CC(CC(C3)C1)C2`, the T/C [11] is reported as 106 % of control, the T/C [12] is reported as 97 % of control and the T/C [13] is reported as 114 % of control. For the same compound, the T/C (dose: 400.0 mg/kg/injection, schedule: Q04DX003 (ip), vehicle: saline with Tween-80) was 120 % of control.

`COc1ccc2c(ccc3oc([N+](=O)[O-])cc32)c1` was tested, and the T/C [7] was 121 % of control, the T/C (dose: 120.0 mg/kg/injection, schedule: Q04DX003 (ip), vehicle: Klucel (hydroxypropylcellulose) (HPC)) was 170 % of control and the T/C [8] was 86 % of control.

For `c1ccc(OCC2CO2)c(OCC2CO2)c1` (centres undefined), the T/C (dose: 37.5 mg/kg/injection, schedule: Q04DX003 (ip), vehicle: saline with Tween-80) was 118 % of control, the T/C (dose: 75.0 mg/kg/injection, schedule: Q04DX003 (ip), vehicle: saline with Tween-80) was 109 % of control and the T/C [14] was 265 % of control.

With `NC(N)=NS(=O)(=O)c1ccc(NCc2c3ccccc3nc3ccccc23)cc1` the T/C (dose: 600.0 mg/kg/injection, schedule: Q04DX003 (ip), vehicle: Klucel (hydroxypropylcellulose) (HPC)) was 166 % of control and the T/C (dose: 1200.0 mg/kg/injection, schedule: Q04DX003 (ip), vehicle: Klucel (hydroxypropylcellulose) (HPC)) was 155 % of control.

In the case of `Cc1cc(=NO)cc(C)n1O`, the T/C (dose: 75.0 mg/kg/injection, schedule: Q04DX003 (ip), vehicle: distilled water + alcohol) is reported as 101 % of control, the T/C (dose: 150.0 mg/kg/injection, schedule: Q04DX003 (ip), vehicle: distilled water + alcohol) is reported as 103 % of control and the T/C (dose: 300.0 mg/kg/injection, schedule: Q04DX003 (ip), vehicle: distilled water + alcohol) is reported as 101 % of control. The T/C (dose: 600.0 mg/kg/injection, schedule: Q04DX003 (ip), vehicle: distilled water + alcohol) was 96 % of control.

With `C/C=C/C=C/c1cc2cc3c(c(O)c2c(=O)[nH]1)C1(CC3)C(O)=c2c(=O)c3c(=O)cc(OC)c(=O)c=3c(=O)c2=C1O` (centres undefined) the T/C [1] was 155 % of control, the T/C (dose: 1.8 mg/kg/injection, schedule: Q04DX003 (ip), vehicle: water) was 155 % of control and the T/C (dose: 3.0 mg/kg/injection, schedule: Q04DX003 (ip), vehicle: water) was 169 % of control and 177 % of control. The T/C (dose: 5.0 mg/kg/injection, schedule: Q04DX003 (ip), vehicle: water) was 177 % of control and the T/C (dose: 8.3 mg/kg/injection, schedule: Q04DX003 (ip), vehicle: water) was 189 % of control.

With `Nc1ccc2ccc(NS(=O)(=O)N3CCCCC3)cc2c1` the T/C [14] was 154 % of control and the T/C (dose: 600.0 mg/kg/injection, schedule: Q04DX003 (ip), vehicle: saline with Tween-80) was 96 % of control.

For `Nc1ccn([C@@H](C=O)C[C@@H](C=O)CO)c(=O)n1`, the T/C (dose: 18.75 mg/kg/injection, schedule: Q04DX003 (ip), vehicle: saline) was 105 % of control, the T/C (dose: 37.5 mg/kg/injection, schedule: Q04DX003 (ip), vehicle: saline) was 107 % of control and the T/C (dose: 75.0 mg/kg/injection, schedule: Q04DX003 (ip), vehicle: saline) was 103 % of control. For the same compound, the T/C (dose: 150.0 mg/kg/injection, schedule: Q04DX003 (ip), vehicle: saline) was 103 % of control and the T/C (dose: 300.0 mg/kg/injection, schedule: Q04DX003 (ip), vehicle: saline) was 102 % of control.

In the case of `O=C(/C=C/c1ccccc1)c1ccccc(=O)c1O`, the T/C (dose: 6.85 mg/kg/injection, schedule: Q04DX003 (ip), vehicle: Klucel (hydroxypropylcellulose) (HPC)) is reported as 100 % of control, the T/C (dose: 13.7 mg/kg/injection, schedule: Q04DX003 (ip), vehicle: Klucel (hydroxypropylcellulose) (HPC)) is reported as 97 % of control and the T/C (dose: 27.5 mg/kg/injection, schedule: Q04DX003 (ip), vehicle: Klucel (hydroxypropylcellulose) (HPC)) is reported as 104 % of control. For the same compound, the T/C (dose: 55.0 mg/kg/injection, schedule: Q04DX003 (ip), vehicle: Klucel (hydroxypropylcellulose) (HPC)) was 108 % of control and the T/C (dose: 110.0 mg/kg/injection, schedule: Q04DX003 (ip), vehicle: Klucel (hydroxypropylcellulose) (HPC)) was 94 % of control.

With `OCC1OC(n2cnc3c2NC=NC[C@H]3O)CC1O` (some centres undefined) the T/C (dose: 2.0 mg/kg/injection, schedule: Q04DX003 (ip), vehicle: saline) was 102 % of control, the T/C [2] was 94 % of control and the T/C [3] was 96 % of control. The T/C [4] was 100 % of control.

In the case of `CCOC(=O)N(C)N=NC`, the T/C (dose: 7.5 mg/kg/injection, schedule: Q04DX003 (ip), vehicle: saline) is reported as 108 % of control and 109 % of control, the T/C (dose: 15.0 mg/kg/injection, schedule: Q04DX003 (ip), vehicle: saline) is reported as 107 % of control and 114 % of control (2×) and the T/C (dose: 30.0 mg/kg/injection, schedule: Q04DX003 (ip), vehicle: saline) is reported as 121 % of control. The T/C (dose: 60.0 mg/kg/injection, schedule: Q04DX003 (ip), vehicle: saline) was 194 % of control and the T/C (dose: 120.0 mg/kg/injection, schedule: Q04DX003 (ip), vehicle: saline) was 172 % of control and 191 % of control and 205 % of control.

In the case of `O=NNc1ccc2cccnc2n1`, the T/C (dose: 9.38 mg/kg/injection, schedule: Q04DX003 (ip), vehicle: water) is reported as 99 % of control, the T/C (dose: 18.75 mg/kg/injection, schedule: Q04DX003 (ip), vehicle: water) is reported as 120 % of control and the T/C (dose: 37.5 mg/kg/injection, schedule: Q04DX003 (ip), vehicle: water) is reported as 157 % of control. For the same compound, the T/C (dose: 75.0 mg/kg/injection, schedule: Q04DX003 (ip), vehicle: water) was 192 % of control and the T/C (dose: 150.0 mg/kg/injection, schedule: Q04DX003 (ip), vehicle: water) was 214 % of control.
